Source: ChEMBL document CHEMBL1157637, “Potent DNA-directed alkylating agents: Synthesis and biological activity of phenyl N-mustard-quinoline conjugates having a urea or hydrazinecarboxamide linker” (Bioorg Med Chem, 2010)
Active and inactive are the calls of the source. The calls are words filed in the database; no cut-off is given here.

Assays:
CCRF-CEM [1] = experiment: Cytotoxicity against taxol-resistant human CCRF-CEM cells after 72 hrs by XTT assay; type: functional, cell-based
MX1 [2] = experiment: Cytotoxicity against human MX1 cells after 72 hrs by SRB assay; type: functional, cell-based; conditions: MX1, 72 h
[3] = Cytotoxicity against human CL1-5 cells after 72 hrs by alamar blue assay; type: functional, cell-based; conditions: CL1-5, 72 h
CCRF-CEM [4] = experiment: Selectivity ratio of IC50 for taxol-resistant human CCRF-CEM cells to IC50 for human CCRF-CEM cells; type: functional
CCRF-CEM [5] = experiment: Cytotoxicity against human CCRF-CEM cells after 72 hrs by XTT assay; type: functional, cell-based
PC-3 = experiment: Cytotoxicity against human PC3 cells after 72 hrs by alamar blue assay; type: functional, cell-based; conditions: PC-3, 72 h
HCT-116 = experiment: Cytotoxicity against human HCT116 cells after 72 hrs by SRB assay; type: functional, cell-based; conditions: HCT-116, 72 h
CCRF-CEM [6] = experiment: Selectivity ratio of IC50 for vinblastine-resistant human CCRF-CEM cells to IC50 for human CCRF-CEM cells; type: functional
[7] = Cytotoxicity against human H1299 cells after 72 hrs by alamar blue assay; type: functional, cell-based; conditions: NCI-H1299, 72 h
[8] = Cytotoxicity against human CL1-0 cells after 72 hrs by alamar blue assay; type: functional, cell-based; conditions: CL1-0, 72 h
MCF7 = experiment: Cytotoxicity against human MCF7 cells after 72 hrs by alamar blue assay; type: functional, cell-based; conditions: MCF7, 72 h
CCRF-CEM [9] = experiment: Cytotoxicity against vinblastine-resistant human CCRF-CEM cells after 72 hrs by XTT assay; type: functional, cell-based
Nucleic Acid = experiment: Binding affinity to pEGFP-N1 DNA assessed as formation of interstrand cross-links with DNA by alkaline gel shift assay; type: nucleic-acid assay
MX1 [10] = experiment: Antitumor activity against human MX1 cells xenografted in nu/nu nude mouse assessed as complete tumor remission at 100 mg/kg, iv administered as injection in Q2D x 5 schedule measured on day 70; type: functional, organism-based; design: dose 100 mg/kg
MX1 [11] = experiment: Antitumor activity against human MX1 cells xenografted in nu/nu nude mouse assessed as complete tumor remission at 100 mg/kg, iv administered as injection in Q2D x 5 schedule measured on day 18; type: functional, organism-based; design: dose 100 mg/kg
Mus musculus = experiment: Toxicity in nu/nu nude mouse assessed as body weight loss at 100 mg/kg, iv administered as injection in Q2D x 5 schedule measured on day 16; type: organism-based; design: dose 100 mg/kg, route intravenous; conditions: in vivo

Row | Compound | IC50 (CCRF-CEM [1]) | IC50 (MX1 [2]) | IC50 [3] | Ratio IC50 (CCRF-CEM [4]) | IC50 (CCRF-CEM [5]) | IC50 (PC-3) | IC50 (HCT-116) | Ratio IC50 (CCRF-CEM [6]) | IC50 [7] | IC50 [8] | IC50 (MCF7) | IC50 (CCRF-CEM [9]) | Activity (Nucleic Acid) | Activity (MX1 [10]) | Activity (MX1 [11]) | Activity (Mus musculus)
1 | O=C(NNc1ccc(N(CCCl)CCCl)cc1)Nc1cc(-c2ccccc2F)nc2cc3c(cc12)OCO3 | 2.98 µM | 42.6 µM | 2.65 µM | 2.09 | 1.42 µM | 4.77 µM | 6.48 µM | 2.23 | 0.491 µM | 3.47 µM | 1.82 µM | 3.17 µM | – | – | – | –
2 | Cc1cc(NC(=O)Nc2ccc(N(CCCl)CCCl)cc2)c2cc(N(C)C)ccc2n1 | 0.308 µM | 0.184 µM | 2.52 µM | 2.9 | 0.107 µM | 2 µM | 0.3 µM | 2.3 | 0.714 µM | 1.73 µM | 2.13 µM | 0.242 µM | – | – | – | –
3 | COc1cccc(-c2cc(NC(=O)NNc3ccc(N(CCCl)CCCl)cc3)c3cc(OC)ccc3n2)c1 | 2.15 µM | 3.46 µM | 11 µM | 3.9 | 0.552 µM | 6.45 µM | 3.44 µM | 2.94 | 5.99 µM | 11.7 µM | 15.4 µM | 1.62 µM | Active | – | – | –
4 | COc1cccc(-c2cc(NC(=O)Nc3ccc(N(CCCl)CCCl)cc3)c3cc(N4CCCC4)ccc3n2)c1 | 2.23 µM | 265 µM | 9.49 µM | 0.02 | 102 µM | 11.1 µM | 168 µM | 7.58 | 3.81 µM | 7.09 µM | 6.93 µM | 774 µM | – | – | – | –
5 | O=C(Nc1ccc(N(CCCl)CCCl)cc1)Nc1cc(-c2ccccc2F)nc2cc3c(cc12)OCO3 | 2.61 µM | 13.1 µM | – | 0.84 | 3.09 µM | – | 25.4 µM | 0.76 | – | – | – | 2.35 µM | – | – | – | –
6 | Cc1cc(NC(=O)Nc2ccc(N(CCCl)CCCl)cc2)c2cc3c(cc2n1)OCO3 | 0.605 µM | 0.584 µM | 7.27 µM | 2.2 | 0.279 µM | 5.96 µM | 0.402 µM | 2.3 | 5.44 µM | 6.23 µM | 4.91 µM | 0.652 µM | – | – | – | –
7 | COc1cccc(-c2cc(NC(=O)Nc3ccc(N(CCCl)CCCl)cc3)c3cc(Cl)ccc3n2)c1 | 1.1 µM | 2.25 µM | – | 0.59 | 1.88 µM | – | 4.88 µM | 0.55 | – | – | – | 1.03 µM | – | – | – | –
8 | COc1cccc(-c2cc(NC(=O)Nc3ccc(N(CCCl)CCCl)cc3)c3cc(OC)ccc3n2)c1 | 0.588 µM | 1.83 µM | 3.82 µM | 1.62 | 0.362 µM | 5.88 µM | 3.69 µM | 1.53 | 5.69 µM | 4.73 µM | 3.04 µM | 0.557 µM | – | Active | Active | 13%
9 | O=C(Nc1ccc(N(CCCl)CCCl)cc1)Nc1cc(-c2ccccc2)nc2ccccc12 | 1.46 µM | 3.47 µM | – | 0.87 | 1.69 µM | – | 7.79 µM | 0.99 | – | – | – | 1.66 µM | – | – | – | –
10 | O=C(NNc1ccc(N(CCCl)CCCl)cc1)Nc1cc(-c2ccccc2F)nc2ccc(N3CCCC3)cc12 | 0.261 µM | 2.26 µM | 0.511 µM | 1.72 | 0.152 µM | 0.954 µM | 0.192 µM | 2.05 | 0.604 µM | 0.694 µM | 1 µM | 0.312 µM | – | – | – | –
11 | COc1ccc2nc(C)cc(NC(=O)Nc3ccc(N(CCCl)CCCl)cc3)c2c1 | 0.313 µM | 0.645 µM | 5.33 µM | 1 | 0.309 µM | 3.15 µM | 0.83 µM | 1.5 | 1.31 µM | 5.58 µM | 5.19 µM | 0.458 µM | – | – | – | –
12 | COc1cccc(-c2cc(NC(=O)NNc3ccc(N(CCCl)CCCl)cc3)c3cc(N4CCCC4)ccc3n2)c1 | 0.568 µM | 1.32 µM | 5.87 µM | 1.6 | 0.354 µM | 3.34 µM | 0.643 µM | 2.35 | 0.945 µM | 2.92 µM | 5.46 µM | 0.833 µM | – | – | – | –
